Measured values from patent publication US7541368B2, “Pyrazoles as inhibitors of tumor necrosis factor” (Aventis Pharmaceuticals Inc., priority 2003, dated 2009).
pIC50: −log10 of the molar value.

tested on: TNF-alpha release in THP-1 cells; assay: LPS-induced TNF-alpha release in THP-1 cells; assay type: cell-based; settings: Homo sapiens, THP-1, LPS-stimulated THP-1 cells; read-out: 50% inhibition in the LPS-induced TNF-alpha release in THP-1 cells assay at concentrations within the range
Outline: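 Undifferentiated THP-1 monocytes (1×10^6 cells/ml, 1% FCS) preincubated 1 h at 37° C with compound (1×10^−9 to 1×10^−6 M, 0.3% DMSO), then stimulated with LPS (20 μg/ml) for 18 h. Supernatant TNF-alpha measured by sandwich ELISA (TMB read-out), interpolated from a log/log standard curve (0.125-16 ng/ml).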

pIC50, 6.30 to 8.00:
Cc1ccc(-n2nc(C(C)(C)C)cc2NC(=O)Nc2ccc(CC3CCN(C(=O)c4cc5cnccc5nc4C)CC3)cc2)cc1 [Compound A243, 1-(5-tert-Butyl-2-p-tolyl-2H-pyrazol-3-yl)-3-{4-[1-(2-methyl-[1,6]naphthyridine-3-carbonyl)-piperidin-4-ylmethyl]-phenyl}-urea]
Cc1ccc(-n2nc(C(C)(C)C)cc2NC(=O)Nc2ccc(CC3CCN(C(=O)c4ccoc4C)CC3)cc2)cc1 [Compound A244, 1-(5-tert-Butyl-2-p-tolyl-2H-pyrazol-3-yl)-3-{4-[1-(2-methyl-furan-3-carbonyl)-piperidin-4-ylmethyl]-phenyl}-urea]
Cc1ccc(-n2nc(C(C)(C)C)cc2NC(=O)Nc2ccc(CC3CCN(C(=O)c4cc5cccnc5nc4C)CC3)cc2)cc1 [Compound A249, 1-(5-tert-Butyl-2-p-tolyl-2H-pyrazol-3-yl)-3-{4-[1-(2-methyl-[1,8]naphthyridine-3-carbonyl)-piperidin-4-ylmethyl]-phenyl}-urea]
Cc1ccc(-n2nc(C(C)(C)C)cc2NC(=O)Nc2ccc(CC3CCN(C(=O)c4cccnc4C)CC3)cc2)cc1 [Compound A251, 1-(5-tert-Butyl-2-p-tolyl-2H-pyrazol-3-yl)-3-{4-[1-(2-methyl-pyridine-3-carbonyl)-piperidin-4-ylmethyl]-phenyl}-urea]
Cc1ccc(-n2nc(C(C)(C)C)cc2NC(=O)Nc2ccc(CC3CCN(C(=O)c4cnc5ccccc5n4)CC3)cc2)cc1 [Compound A257, 1-(5-tert-Butyl-2-p-tolyl-2H-pyrazol-3-yl)-3-{4-[1-(quinoxaline-2-carbonyl)-piperidin-4-ylmethyl]-phenyl}-urea]
Cc1ccc(-n2nc(C(C)(C)C)cc2NC(=O)Nc2ccc(CC3CCN(C(=O)C4CCCO4)CC3)cc2)cc1 (centres unmarked) [Compound A258, 1-(5-tert-Butyl-2-p-tolyl-2H-pyrazol-3-yl)-3-{4-[1-(tetrahydro-furan-2-carbonyl)-piperidin-4-ylmethyl]-phenyl}-urea]
COc1ccc(C(=O)N2CCC(Cc3ccc(NC(=O)Nc4cc(C(C)(C)C)nn4-c4ccc(C)cc4)cc3)CC2)cc1OC [Compound A261, 1-(5-tert-Butyl-2-p-tolyl-2H-pyrazol-3-yl)-3-{4-[1-(3,4-dimethoxy-benzoyl)-piperidin-4-ylmethyl]-phenyl}-urea]
COc1ccc(CC(=O)N2CCC(Cc3ccc(NC(=O)Nc4cc(C(C)(C)C)nn4-c4ccc(C)cc4)cc3)CC2)cc1OC [Compound A262, 1-(5-tert-Butyl-2-p-tolyl-2H-pyrazol-3-yl)-3-(4-{1-[2-(3,4-dimethoxy-phenyl)-acetyl]-piperidin-4-ylmethyl}-phenyl)-urea]
Cc1ccc(-n2nc(C(C)(C)C)cc2NC(=O)Nc2ccc(CC3CCN(C(=O)Cc4ccc5c(c4)OCO5)CC3)cc2)cc1 [Compound A263, 1-{4-[1-(2-Benzo[1,3]dioxol-5-yl-acetyl)-piperidin-4-ylmethyl]-phenyl}-3-(5-tert-butyl-2-p-tolyl-2H-pyrazol-3-yl)-urea]
COc1cc(OC)cc(C(=O)N2CCC(Cc3ccc(NC(=O)Nc4cc(C(C)(C)C)nn4-c4ccc(C)cc4)cc3)CC2)c1 [Compound A266, 1-(5-tert-Butyl-2-p-tolyl-2H-pyrazol-3-yl)-3-{4-[1-(3,5-dimethoxy-benzoyl)-piperidin-4-ylmethyl]-phenyl}-urea]
Cc1ccc(-n2nc(C(C)(C)C)cc2NC(=O)Nc2ccc(CC3CCN(C(=O)c4cccc(C(C)C#N)c4)CC3)cc2)cc1 (centres unmarked) [Compound A272, 1-(5-tert-Butyl-2-p-tolyl-2H-pyrazol-3-yl)-3-(4-{1-[3-(cyano-methyl-methyl)-benzoyl]-piperidin-4-ylmethyl}-phenyl)-urea]
Cc1ccc(-n2nc(C(C)(C)C)cc2NC(=O)Nc2ccc(CC3CCN(C(=O)CCc4ccco4)CC3)cc2)cc1 [Compound A274, 1-(5-tert-Butyl-2-p-tolyl-2H-pyrazol-3-yl)-3-{4-[1-(3-furan-2-yl-propionyl)-piperidin-4-ylmethyl]-phenyl}-urea]
Cc1ccc(-n2nc(C(C)(C)C)cc2NC(=O)Nc2ccc(CC3CCN(C(=O)c4ccoc4)CC3)cc2)cc1 [Compound A286, 1-(5-tert-Butyl-2-p-tolyl-2H-pyrazol-3-yl)-3-{4-[1-(furan-3-carbonyl)-piperidin-4-ylmethyl]-phenyl}-urea]
COc1cccc(CC(=O)N2CCC(Cc3ccc(NC(=O)Nc4cc(C(C)(C)C)nn4-c4ccc(C)cc4)cc3)CC2)c1 [Compound A288, 1-(5-tert-Butyl-2-p-tolyl-2H-pyrazol-3-yl)-3-(4-{1-[2-(3-methoxy-phenyl)-acetyl]-piperidin-4-ylmethyl}-phenyl)-urea]
Cc1ccc(-n2nc(C(C)(C)C)cc2NC(=O)Nc2ccc(CC3CCN(C(=O)c4cc(C)c(C)o4)CC3)cc2)cc1 [Compound A298, 1-(5-tert-Butyl-2-p-tolyl-2H-pyrazol-3-yl)-3-{4-[1-(4,5-dimethyl-furan-2-carbonyl)-piperidin-4-ylmethyl]-phenyl}-urea]
Cc1ccc(-n2nc(C(C)(C)C)cc2NC(=O)Nc2ccc(CC3CCN(C(=O)c4ccc(-c5cnco5)cc4)CC3)cc2)cc1 [Compound A301, 1-(5-tert-Butyl-2-p-tolyl-2H-pyrazol-3-yl)-3-{4-[1-(4-oxazol-5-yl-benzoyl)-piperidin-4-ylmethyl]-phenyl}-urea]
Cc1ccc(-n2nc(C(C)(C)C)cc2NC(=O)Nc2ccc(CC3CCN(C(=O)c4ccc(OC(F)F)cc4)CC3)cc2)cc1 [Compound A306, 1-(5-tert-Butyl-2-p-tolyl-2H-pyrazol-3-yl)-3-{4-[1-(4-difluoromethoxy-benzoyl)-piperidin-4-ylmethyl]-phenyl}-urea]
Cc1ccc(-n2nc(C(C)(C)C)cc2NC(=O)Nc2ccc(CC3CCN(C(=O)c4ccc(N)c(OC(F)(F)F)c4)CC3)cc2)cc1 [Compound A309, 1-{4-[1-(4-Amino-3-trifluoromethoxy-benzoyl)-piperidin-4-ylmethyl]-phenyl}-3-(5-tert-butyl-2-p-tolyl-2H-pyrazol-3-yl)-urea]
Cc1ccc(-n2nc(C(C)(C)C)cc2NC(=O)Nc2ccc(CC3CCN(C(=O)Cc4ccc(F)cc4)CC3)cc2)cc1 [Compound A314, 1-(5-tert-Butyl-2-p-tolyl-2H-pyrazol-3-yl)-3-(4-{1-[2-(4-fluoro-phenyl)-acetyl]-piperidin-4-ylmethyl}-phenyl)-urea]
Cc1ccc(-n2nc(C(C)(C)C)cc2NC(=O)Nc2ccc(CC3CCN(C(=O)c4ccc(CO)cc4)CC3)cc2)cc1 [Compound A315, 1-(5-tert-Butyl-2-p-tolyl-2H-pyrazol-3-yl)-3-{4-[1-(4-hydroxymethyl-benzoyl)-piperidin-4-ylmethyl]-phenyl}-urea]
COc1ccc(CC(=O)N2CCC(Cc3ccc(NC(=O)Nc4cc(C(C)(C)C)nn4-c4ccc(C)cc4)cc3)CC2)cc1 [Compound A319, 1-(5-tert-Butyl-2-p-tolyl-2H-pyrazol-3-yl)-3-(4-{1-[2-(4-methoxy-phenyl)-acetyl]-piperidin-4-ylmethyl}-phenyl)-urea]
Cc1ccc(-n2nc(C(C)(C)C)cc2NC(=O)Nc2ccc(CC3CCN(C(=O)c4cnn(-c5ccccc5)c4C)CC3)cc2)cc1 [Compound A331, 1-(5-tert-Butyl-2-p-tolyl-2H-pyrazol-3-yl)-3-{4-[1-(5-methyl-1-phenyl-1H-pyrazole-4-carbonyl)-piperidin-4-ylmethyl]-phenyl}-urea]
Cc1ccc(-n2nc(C(C)(C)C)cc2NC(=O)Nc2ccc(CC3CCN(C(=O)c4ccc(N)nc4)CC3)cc2)cc1 [Compound A331A, 1-{4-[1-(6-Amino-pyridine-3-carbonyl)-piperidin-4-ylmethyl]-phenyl}-3-(5-tert-butyl-2-p-tolyl-2H-pyrazol-3-yl)-urea]
Cc1ccc(-n2nc(C(C)(C)C)cc2NC(=O)Nc2ccc(CC3CCN(C(=O)c4ccc(Cl)nc4)CC3)cc2)cc1 [Compound A332, 1-(5-tert-Butyl-2-p-tolyl-2H-pyrazol-3-yl)-3-{4-[1-(6-chloro-pyridine-3-carbonyl)-piperidin-4-ylmethyl]-phenyl}-urea]
Cc1ccc(-n2nc(C(C)(C)C)cc2NC(=O)Nc2ccc(CC3CCN(C(=O)c4ccc5ncsc5c4)CC3)cc2)cc1 [Compound A338, 1-{4-[1-(Benzothiazole-6-carbonyl)-piperidin-4-ylmethyl]-phenyl}-3-(5-tert-butyl-2-p-tolyl-2H-pyrazol-3-yl)-urea]
CCCC(=O)N1CCC(Cc2ccc(NC(=O)Nc3cc(C(C)(C)C)nn3-c3ccc(C)cc3)cc2)CC1 [Compound A343, 1-(5-tert-Butyl-2-p-tolyl-2H-pyrazol-3-yl)-3-[4-(1-butyryl-piperidin-4-ylmethyl)-phenyl]-urea]
Cc1ccc(-n2nc(C(C)(C)C)cc2NC(=O)Nc2ccc(CC3CCN(C(=O)CC4CCCC4)CC3)cc2)cc1 [Compound A349, 1-(5-tert-Butyl-2-p-tolyl-2H-pyrazol-3-yl)-3-{4-[1-(2-cyclopentyl-acetyl)-piperidin-4-ylmethyl]-phenyl}-urea]
Cc1ccc(-n2nc(C(C)(C)C)cc2NC(=O)Nc2ccc(CC3CCN(C(=O)CCc4ccccc4)CC3)cc2)cc1 [Compound A354, 1-(5-tert-Butyl-2-p-tolyl-2H-pyrazol-3-yl)-3-{4-[1-(3-phenyl-propionyl)-piperidin-4-ylmethyl]-phenyl}-urea]
Cc1ccc(-n2nc(C(C)(C)C)cc2NC(=O)Nc2ccc(CC3CCN(C(=O)Cc4c[nH]c5ccccc45)CC3)cc2)cc1 [Compound A358, 1-(5-tert-Butyl-2-p-tolyl-2H-pyrazol-3-yl)-3-{4-[1-(2-1H-indol-3-yl-acetyl)-piperidin-4-ylmethyl]-phenyl}-urea]
